Laboratory results reported in PMC5106528, “High-Throughput Toxicity and Phenotypic Screening of 3D Human Neural Progenitor Cell Cultures on a Microarray Chip Platform” (Stem Cell Reports, 2016).
Read-outs that look alike come from different tables or passages of the source.

Tests used:
[1] = tested on: undifferentiated ReNcell VM NPCs; assay: cells
Method: (§1) On-chip cultures of undifferentiated and 10-day differentiated NPCs were stamped with WellChips filled with compound-containing solutions and incubated for 72 hr prior to viability assessment. Vehicle-control normalized viabilities were plotted against compound concentration to generate dose-response plots (Figures 5A and S4). […] The sigmoidal fits for undifferentiated and differentiating NPCs were compared to assess whether differential sensitivities (i.e., different IC50 values) existed for the screened compounds.
(§2) Cell viability was determined in 3D on-chip cultures using a mammalian cell viability assay (LIVE/DEAD, Invitrogen). Prior to the assay, dead cell controls were prepared with 30 min incubation in a WellChip containing either […] 0.5% (w/v) saponin-DMEM/F12 medium in its microwells. […] After staining, PillarChips were rinsed twice with warm DPBS and incubated in DPBS containing 50 mM trehalose (Sigma) for 10 min before rapid drying with nitrogen and storage in the dark. Dried PillarChips were imaged with a Thermo Scientific Cellomics ArrayScan VTI high-content system.
(§3) Undifferentiated and differentiated microchip cultures were prepared as described above. Chemicals were purchased from Sigma or the NIH Small Molecule Repository (Table S2). Concentrated stocks were prepared and diluted into ReNcell Maintenance Medium to prepare the highest screened concentration solution for each compound. Four-fold serial dilutions were made in ReNcell Maintenance Medium, with all solutions having a final concentration of 0.5% or 1% DMSO (v/v) and 20 μg/mL Matrigel. For undifferentiated cultures, the solutions also contained 20 ng/mL of EGF and FGF2. These solutions were printed into WellChips, covered with a gas-permeable membrane, and warmed at 37°C for at least 5 min before stamping with cells. Each WellChip contained six compounds each at six concentrations (n = 10 biological replicates for each concentration) and the appropriate medium containing 0.5% or 1% DMSO for vehicle and dead controls (n = 32 biological replicates per control). PillarChip cultures were incubated with compounds for 72 hr with daily medium exchange to freshly prepared WellChips containing compounds at the appropriate concentrations. […] On-chip toxicity screens were repeated three times for undifferentiated and differentiated cultures. […]

[2] = tested on: differentiating ReNcell VM NPCs; assay: cells
Method: as §1, §2, §3

[3] = tested on: undifferentiated ReNcell VM NPCs; assay: On-chip proliferation assay (EdU incorporation), undifferentiated NPCs; format: cell-based, human
Excerpt: (§4) Differential toxic effects could be explained, in part, as a consequence of the different proliferative states between the undifferentiated and differentiating NPCs. To this end, the thymidine analog, 5-ethynyl-2′-deoxyuridine (EdU), was used to detect actively proliferating cells on-chip following exposure to compounds or vehicle control to determine dose-response effects on proliferation (Figures 5B and S5), and sigmoidal curves were fit, when appropriate, to obtain IC50 values (Table 1). We found ∼60% of undifferentiated NPCs incorporated EdU over a 24-hr period as opposed to ∼3% of differentiating cultures.
(§5) Undifferentiated and differentiating cultures were screened for toxicity as described previously, except that after the first 48 hr of exposure 10 μM EdU (Click-iT EdU, Invitrogen) was added to the compound-containing medium for the final 24 hr. After 72 hr, on-chip cultures were fixed and processed as described previously for on-chip immunofluorescence; however, instead of antibody staining the cultures were incubated with solution containing Alexa Fluor 488-azide for 30 min as specified in the product manual. Cultures were then rinsed with DPBS for 30 min, incubated in DPBS with Hoechst 33342 (5 μg/mL) for 30 min, and washed in DPBS for 30 min before proceeding with a trehalose wash and drying as described previously. Nuclei were selected using Cellomics software from blue channel images to create a mask, which was used for identification of fluorescently labeled EdU in the green channel for quantification of actively proliferating cells over the 24-hr EdU exposure.

[4] = tested on: differentiating ReNcell VM NPCs; assay: cells; format: cell-based, human; conditions: differentiating, 72 hr exposure, EdU for the final 24 hr, sigmoidal fit
Excerpt: as §4, §5

[5] = Homo sapiens, ReNcell VM, 72 h, read-out: Viability Effects Undifferentiated IC50
[6] = Homo sapiens, ReNcell VM, 72 h, read-out: Viability Effects Undifferentiated log(IC50 ± SEM) (converted)
[7] = Homo sapiens, ReNcell VM, undifferentiated, 72 hr exposure, EdU for the final 24 hr, sigmoidal fit, read-out: Proliferation Effects Undifferentiating IC50
[8] = Homo sapiens, ReNcell VM, undifferentiated, 72 hr exposure, EdU for the final 24 hr, sigmoidal fit, read-out: Proliferation Effects Undifferentiating log(IC50 ± SEM) (converted)
[9] = Homo sapiens, ReNcell VM, read-out: Proliferation Effects Differentiating IC50
[10] = Homo sapiens, ReNcell VM, read-out: Proliferation Effects Differentiating log(IC50 ± SEM) (converted)

## O=C(O)C[C@H](O)C[C@H](O)/C=C/c1c(C2CC2)nc2ccccc2c1-c1ccc(F)cc1 [Pitavistatin]
[1]
  Effect on cell viability (in words): cytotoxic only to undifferentiated NPCs
  Normalized viability at Cmax, Undifferentiated, Mean ± SEM: 0.14 ± 0.11
[1]; [5]
  IC50: 5.4 µM
[1]; [6]
  IC50: 5.37 µM
[2]
  Effect on cell viability (in words): did not decrease the viability
  Normalized viability at Cmax, Differentiating, Mean ± SEM: 1.16 ± 0.07
[3]; [7]
  IC50: 2 µM
[3]; [8]
  IC50: 1.95 µM
[3]; NPC cultures, state not specified
  Effect on proliferation of NPC cultures (in words): inhibited proliferation
[4]; [9]
  IC50: 0.98 µM
[4]; [10]
  IC50: 0.977 µM

## Fc1ccc([C@@H]2CCNC[C@H]2COc2ccc3c(c2)OCO3)cc1 [Paroxetine]
[1]; human, 72 h
  Normalized viability at Cmax, Undifferentiated, Mean ± SEM: 0.07 ± 0.13
[2]; human, 72 h
  Normalized viability at Cmax, Differentiating, Mean ± SEM: 0.30 ± 0.38

## CC(=O)[O-].CC(=O)[O-].[Pb+2] [Lead Acetate]
[1]; undifferentiated cultures, 72 hr
  Effect on cell viability (in words): did not reduce cell viability
[2]; differentiating cultures, 72 hr
  Effect on cell viability (in words): did not reduce cell viability

## C[n+]1ccc(-c2cc[n+](C)cc2)cc1 [Paraquat]
[1]
  Normalized viability at Cmax, Undifferentiated, Mean ± SEM: -0.02 ± 0.03
[1]; [5]
  IC50: 57 µM
[1]; [6]
  IC50: 63.1 µM
[2]
  Normalized viability at Cmax, Differentiating, Mean ± SEM: 0.05 ± 0.02
[2]; Homo sapiens, ReNcell VM, read-out: Viability Effects Differentiating IC50
  IC50: 41 µM
[2]; Homo sapiens, ReNcell VM, read-out: Viability Effects Differentiating log(IC50 ± SEM) (converted)
  IC50: 40.7 µM
[3]; [7]
  IC50: 59 µM
[3]; [8]
  IC50: 58.9 µM
[4]; [9]
  IC50: 30 µM
[4]; [10]
  IC50: 30.2 µM

## CN(C)CCOC(c1ccccc1)c1ccccc1 [Diphenhydramine]
[1]
  Cytotoxicity (in words): no cytotoxicity at functionally relevant concentrations

## [Cl][Cd][Cl] [Cadmium Chloride]
[1]; read-out: Viability Effects Undifferentiated IC50, undifferentiated (+EGF/FGF2), 72 hr exposure, 1% Matrigel on-chip, sigmoidal fit
  IC50: 3.7 µM
[1]; undifferentiated (+EGF/FGF2), 72 hr exposure, 1% Matrigel on-chip, sigmoidal fit
  Viability Effects Undifferentiated log(IC50 ± SEM): 0.57 ± 0.3 log(μM)
[2]; 10-day differentiated (−EGF/FGF2), 72 hr exposure, 1% Matrigel on-chip, sigmoidal fit
  Viability Effects Differentiating log(IC50 ± SEM): 0.88 ± 0.27 log(μM)
[2]; read-out: Viability Effects Differentiating IC50, 10-day differentiated (−EGF/FGF2), 72 hr exposure, 1% Matrigel on-chip, sigmoidal fit
  IC50: 7.6 µM
[3]; undifferentiated, 72 hr exposure, EdU for the final 24 hr, sigmoidal fit
  Proliferation Effects Undifferentiating log(IC50 ± SEM): 0.93 log(μM)
[3]; undifferentiated, 72 hr exposure, EdU for the final 24 hr, sigmoidal fit, read-out: Proliferation Effects Undifferentiating IC50
  IC50: 8.6 µM
[4]
  Proliferation Effects Differentiating log(IC50 ± SEM): 1.18 log(μM)
[4]; read-out: Proliferation Effects Differentiating IC50
  IC50: 15 µM

## O=C(O)CNCP(=O)(O)O [Glyphosate]
[1]
  Normalized viability at Cmax, Undifferentiated, Mean ± SEM: 0.01 ± 0.03
[2]
  Normalized viability at Cmax, Differentiating, Mean ± SEM: 0.41 ± 0.14

## CN1CCN2c3ncccc3Cc3ccccc3C2C1 (stereo not drawn) [Mitrazepine, Mirtazapine]
[1]; human, 72 h
  Normalized viability at Cmax, Undifferentiated, Mean ± SEM: 1.11 ± 0.09

## CC(COc1ccccc1Cc1ccccc1)N1CCCCC1 (stereo not drawn) [Benproperone, Benproperine]
[1]
  Normalized viability at Cmax, Undifferentiated, Mean ± SEM: 0.06 ± 0.52
[2]
  Normalized viability at Cmax, Differentiating, Mean ± SEM: 0.71 ± 0.30
